Laboratory results as given in PubChem BioAssay (NCI).
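Grown in 96-well plates, cells were treated for 48 hours with each compound at five concentrations. Insufficient inhibition: endpoint recorded as highest concentration tested. GI50 marks 50% less growth. TGI denotes the concentration required for complete inhibition of growth.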

What was measured:
Test in all cases: DTP human tumour cell line panel, 48 h
CAKI-1 renal = system: CAKI-1 renal
HCT-116 colon = system: HCT-116 colon
HL-60(TB) leukemia = system: HL-60(TB) leukemia
HT29 colon = system: HT29 colon
MOLT-4 leukemia = system: MOLT-4 leukemia
SF-268 CNS = system: SF-268 CNS
SW-620 colon = system: SW-620 colon
U251 CNS = system: U251 CNS
UACC-257 melanoma = system: UACC-257 melanoma

| SMILES | GI50 (CAKI-1 renal) | TGI (CAKI-1 renal) | GI50 (HCT-116 colon) | TGI (HCT-116 colon) | GI50 (HL-60(TB) leukemia) | TGI (HL-60(TB) leukemia) | GI50 (HT29 colon) | TGI (HT29 colon) | GI50 (MOLT-4 leukemia) | TGI (MOLT-4 leukemia) | GI50 (SF-268 CNS) | TGI (SF-268 CNS) | GI50 (SW-620 colon) | TGI (SW-620 colon) | GI50 (U251 CNS) | TGI (U251 CNS) | GI50 (UACC-257 melanoma) | TGI (UACC-257 melanoma) |
| --- | --- | --- | --- | --- | --- | --- | --- | --- | --- | --- | --- | --- | --- | --- | --- | --- | --- | --- |
| O=C(c1ccccc1)c1c(C(F)(F)F)n([O-])c2cc(C(F)(F)F)ccc2[n+]1=O | 0.491 µM | 0.956 µM | 0.951 µM | 2.36 µM | 0.55 µM | 1.58 µM | 0.983 µM | 2.86 µM | 0.6 µM | 2.29 µM | 1.58 µM | 3.14 µM | 0.619 µM | 1.69 µM | 1.54 µM | 2.97 µM | 1.71 µM | 3.35 µM |
| O=C(CI)Nc1ccc(O)c2ccccc12 | 0.69 µM | 1.84 µM | 0.481 µM | 1.16 µM | 1.61 µM | 4.79 µM | 0.504 µM | 2.8 µM | 0.846 µM | 8.18 µM | 2.03 µM | 5.56 µM | 0.282 µM | 0.886 µM | 1.57 µM | 3.11 µM | 1.54 µM | 3.14 µM |
| O=C1C(=O)c2ccccc2C(O)=C1CCCc1ccc(C2CCCCC2)cc1 | 2.02 µM | 6.51 µM | 2.01 µM | 14.3 µM | 2.94 µM | 28.5 µM | 5.11 µM | > 100 µM | 4.24 µM | > 100 µM | 3.8 µM | 49.6 µM | 4.36 µM | 19.5 µM | 6.42 µM | > 100 µM | 6.5 µM | > 100 µM |
| COC(=O)C(CC(=O)Nc1ccc(Cl)c(Cl)c1)C(=O)C(=O)Nc1ccc(Cl)c(Cl)c1 (stereo unspecified) |  | > 100 µM |  | > 100 µM |  | > 100 µM |  | > 100 µM |  | > 100 µM |  | > 100 µM |  | > 100 µM |  | > 100 µM |  | > 100 µM |
| COC1=CC(c2ccc[nH]2)=N/C1=C\c1[nH]c(C)c(CC(=O)OCc2ccccc2)c1C | 0.307 µM | 2.27 µM | 0.219 µM | 1.05 µM | 0.537 µM | 2.44 µM | 0.205 µM | 1.41 µM | 0.23 µM | 1.27 µM | 0.358 µM | 2.56 µM | 0.366 µM | 1.79 µM | 0.319 µM | 1.73 µM | 0.605 µM | 2.24 µM |
| O=C(Nc1ccc(F)cc1)Nc1ccc(Br)c(C(F)(F)F)c1 |  |  | 1.72 µM | 9.33 µM | 1.87 µM | 5.19 µM | 2.3 µM | 10.9 µM | 1.95 µM | 5.53 µM | 2.97 µM | 13.2 µM | 3.22 µM | 12.7 µM | 2.14 µM | 7.47 µM | 2.73 µM | 7.51 µM |
| CC(=O)OC12c3ccccc3-c3ccccc3C1C(C(=O)O)C2C(=O)O (stereo unspecified) |  | > 10 µM |  |  |  | > 10 µM |  | > 10 µM |  | > 10 µM |  | > 10 µM |  | > 10 µM |  | > 10 µM |  | > 10 µM |
| O=C1C=Cc2c1ccc1ccccc21 | 11.1 µM | 33 µM | 27 µM | > 100 µM |  |  | 58.8 µM | > 100 µM |  |  | 28.3 µM | > 100 µM | 44.3 µM | > 100 µM | 24.5 µM | > 100 µM | 50.2 µM | > 100 µM |
| O=c1oc2cc(OC/C(=N/O)c3ccc(F)cc3)ccc2c2ccccc12 | 13.1 µM | 33.4 µM | 15.8 µM | 29.2 µM |  |  | 19.4 µM | 43.2 µM | 16.7 µM | 42.7 µM | 21.1 µM | 42.3 µM | 23.2 µM | 44.6 µM | 20.9 µM | 45.5 µM | 22.9 µM | 39.4 µM |
| ClCc1ccccc1Cn1cnc2c(Cl)ncnc21 | 1.83 µM | 4.14 µM | 1.91 µM | 3.69 µM |  |  | 3.56 µM | > 100 µM | 1.6 µM | 5.28 µM | 3.24 µM | 10.9 µM | 1.78 µM | 5.04 µM | 2.65 µM | 6.11 µM | 10.7 µM | 26.6 µM |
| CC1(C)OC(=O)C(C#N)=C1C[n+]1ccccc1 |  | > 10 µM |  |  |  | > 10 µM |  | > 10 µM |  | > 10 µM |  | > 10 µM |  | > 10 µM |  | > 10 µM |  | > 10 µM |
| COc1cc(C(=O)O[C@H](C(=O)NCCN(C)CCNC(=O)[C@@H](OC(=O)c2cc(OC)cc3c(C)cccc23)[C@]2(C)CO2)[C@]2(C)CO2)c2cccc(C)c2c1 | < 0.01 µM | 0.0477 µM | 0.0751 µM | 2.93 µM |  |  | < 0.0184 µM | > 27 µM | < 0.01 µM | 0.153 µM | < 0.01 µM | 0.929 µM | < 0.01 µM | 0.152 µM | < 0.01 µM | 0.0139 µM | 0.416 µM | 2.38 µM |
| C=C1C(=O)O[C@H]2[C@H]1CC/C(COC(=O)CCCc1c[nH]c3ccccc13)=C\CC[C@@]1(C)O[C@@H]21 |  |  | 0.963 µM | 2.36 µM | 1.63 µM | 5.01 µM | 1.71 µM | 3.37 µM | 1.53 µM | 4.94 µM | 1.69 µM | 3.46 µM | 1.84 µM | 4.36 µM | 1.95 µM | 3.67 µM | 2.03 µM | 3.96 µM |
